{"source": "patent US11213557B2", "about": "“Lactobacillus plantarum CCFM1019, fermented foods thereof, and application thereof in preparation of medicine for promoting excretion of plasticizers and metabolites thereof from body” (priority 2018, dated 2022)", "origin": "cited, not measured here", "key": {"[1]": {"details": "human body, 24 h after DEHP enters the body"}}}
{"smiles": "CCCCC(CC)COC(=O)c1ccccc1C(=O)OCC(CC)CCCC", "note": "(centres unmarked) [DEHP, bis(2-ethylhexyl) phthalate]", "values": [{"measurement": "Half-life", "setting": "DEHP stored in adipose tissue", "value": 156, "unit": "h"}, {"measurement": "Absorption and distribution period", "setting": "human body", "value": "4 to 8", "unit": "h"}, {"measurement": "Time within which most of the DEHP is completely metabolized", "setting": "human body", "value": "≤ 24", "unit": "h"}, {"measurement": "DEHP converted into five secondary metabolites and excreted in urine", "setting": "[1]", "value": "about 67%"}, {"measurement": "DEHP directly excreted in urine", "setting": "[1]", "value": "less than 10%"}]}
